Measurements from ChEMBL document CHEMBL5143586, “Advances in the Development of Nonpeptide Small Molecules Targeting Ghrelin Receptor” (J Med Chem, 2022).

Key:
[1] = Binding affinity at mouse pancreas GHS-R1a assessed as inhibition constant; type: tissue-based
[2] = molecular target: T1, Growth hormone secretagogue receptor type 1 (Homo sapiens, UniProt Q92847); test: Antagonist activity at GHS-R1a (unknown origin) relative to control; type: functional
[3] = molecular target: T1, Growth hormone secretagogue receptor type 1; test: Binding affinity at GHS-R1a (unknown origin) assessed as inhibition constant
[4] = molecular target: T1, Growth hormone secretagogue receptor type 1; test: Inverse agonist activity at GHS-R1a (unknown origin) relative to control; type: functional

T1 sequence (Q92847 whole entry): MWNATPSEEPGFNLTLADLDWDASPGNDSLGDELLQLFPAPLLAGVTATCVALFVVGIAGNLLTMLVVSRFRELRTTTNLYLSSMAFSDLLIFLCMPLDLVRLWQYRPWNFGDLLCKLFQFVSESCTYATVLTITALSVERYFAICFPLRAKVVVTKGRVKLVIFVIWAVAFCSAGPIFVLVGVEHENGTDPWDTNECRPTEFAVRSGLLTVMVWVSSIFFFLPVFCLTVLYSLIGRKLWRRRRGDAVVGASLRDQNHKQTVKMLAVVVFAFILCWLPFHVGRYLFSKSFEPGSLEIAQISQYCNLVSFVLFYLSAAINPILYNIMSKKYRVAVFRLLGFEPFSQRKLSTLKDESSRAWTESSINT

| Ki [1] [nM] | Emax [4] [%] | Structure (SMILES) | also measured |
| --- | --- | --- | --- |
| 4 | – | Cc1ccccc1-c1nc2ccc(-c3ccc(Cl)cc3)cc2c(=O)n1C[C@@H]1CCCN(CCO[11CH3])C1 | – |
| 7 | – | C[C@H]1CN(C(=O)c2ccc(-c3ccc(O[11CH3])cc3)cc2)CCN1C(=O)c1ccc2cc[nH]c2c1 | – |
| 16 | – | Cc1ccccc1-c1nc2ccc(-c3ccc(Cl)cc3)cc2c(=O)n1C[C@@H]1CCCN(CC[18F])C1 | – |
| – | – | COc1ccc(Cn2c([C@@H](Cc3c[nH]c4ccccc34)NC(=O)CO)nnc2[C@@H](Cc2c[nH]c3ccccc23)NC(=O)[C@H](CC(C)C)NC(=O)[C@H](CC(C)C)NC(C)=O)cc1 | Emax [2]: 0% |
| – | -37 | COc1ccc(Cn2c([C@@H](Cc3c[nH]c4ccccc34)NC(=O)[C@H](CC(C)C)NC(=O)[C@H](CC(C)C)NC(C)=O)nnc2[C@@H](Cc2c[nH]c3ccccc23)NC(=O)[C@@H](N)CCCCN)cc1 | Ki [3]: 3 nM |
| – | -55 | CC(C)C[C@H](NC(=O)[C@H](CC(C)C)NC(=O)[C@@H](Cc1c[nH]c2ccccc12)NC(=O)[C@H](Cc1ccccc1)NC(=O)[C@@H](Cc1c[nH]c2ccccc12)NC(=O)[C@@H](N)CCCCN)C(N)=O | – |
